Where “and” joins values, the source holds several entries; their conditions need not be identical. Equal values may be shown once.
Columns and labels:
[1] = tested on: Fischer D+ and D− rat bone marrow stromal cells; assay: IL-6 release from rat bone marrow stromal cells (ELISA); type: cell-based; settings: 2 days incubation
Description: (§1) Cell Source. 8-12 week old female wild type CD26 positive (D^+) and CD26 negative (D^−) Fischer rat (Charles River Labs, Japan) bone marrow.
(§2) Bone marrow preparation. Bone marrow was flushed from each femur, tibia and fibula with Dulbecco's phosphate buffered saline (D-PBS) using a 21-gauge needle and a 10 ml syringe. After removal, the bone marrow was immediately aspirated through the needle to make a single cell suspension. The cells were washed twice with sterile PBS and resuspended in MyeloCult H5100 long-term culture (LTC) media, available from Stem Cell Technologies, and supplemented with freshly diluted 10^−6 M hydrocortisone, available from Sigma.
Establishment of adherent bone marrow stromal cell cultures. 1-2×10^7 cells were seeded into a T25 flask (Coming) containing 10 mls of LTC medium and incubated at 37° C. in 100% humidified 5% CO2 in air. After 1 week half the medium was exchanged for fresh medium and incubated for approximately 1 week until a confluent cell layer formed. PT-100 incubation. The adherent stromal cells were removed from the flask by trypsin-EDTA (Life Technologies, Inc.) digestion, washed once with sterile PBS and resuspended in long term culture medium at 1×10^5/ml. […]
Similar levels of IL-6 are secreted from bone marrow stromal cells of D^+ and D^− rats. […] IL-6 levels in the culture supernatant were determined by ELISA.

B16-F0 tumor = assay: Established subcutaneous B16 melanoma in C57BL/6 mice; type: in vivo, mouse
Description: The highly metastic B16-F0 tumor was implanted subcutaneously (s.c.) in C57BL/6 mice. PT-100 administration was started on day 8 when palpable tumors were apparent. Tumor volumes were measured on days 8, 12, and 15. […] In the experiment of FIG. 4 each experimental group contained 10 animals.

[2] = tested on: DPPIV-like activity of Fischer D+ and D− rat BM stromal cells; assay: DPPIV-like activity assay on rat bone marrow stromal cells; type: cell-based
Description: as §1, §2
Establishment of adherent bone marrow stromal cell cultures. […]
DPPIV-like activity assay. […] The reaction was stopped by removing the substrate solution from each well and measured in the fluorescence spectrophotometer or stored −20° C. Activity was measured using an excitation wavelength of 400 nm and emission wavelength of 505 nm.
Bone marrow stromal cells were established from the long bones of Fischer D^+ and D^− rats and cultured for 2 days in the presence or absence of PT-100. […] DPPIV-like activity is presented as velocity and the percent of protease activity inhibition with PT-100 is calculated relative to a ‘no treatment’ control.

[3] = tested on: FAP-α+ CD26− primary human stromal cells; assay: G-CSF release from FAP-α+ CD26− primary human stromal cells (ELISA); type: cell-based; settings: human bone marrow cells lacking CD26 but expressing FAP-α, 2 days incubation
Description: (§3) Cell source. Bone marrow was kindly donated by New England Medical Center, Boston, Mass. and Dr. Richard Benjamin from Brigham and Women's Hospital in Boston, Mass. Mononuclear cells were purified over Ficoll and used immediately or frozen in liquid nitrogen.
Establishment of human stromal feeder layer. 2 to 4×10^7 human bone marrow mononuclear cells were seeded into a T75 flask (Corning) containing 20 mls of LTC medium and incubated. at 37° C. in 100% humidified 5% CO2 in air. After 1 week half the medium was exchanged for fresh medium and incubated for approximately 1 week when a confluent cell layer formed.
ELISA of human cells. Cultured supernatants were assayed for a high sensitivity ELISA (R+D Systems).
PT-100 incubation, supernatant collection and DPPIV-like activity assay for human and rat cells were carried out in an identical manner.
The DPPIV-like activity associated with the intact cells was inhibited by-PT-100. Stromal cells were established from the bone marrow of a human volunteer as described in the materials and methods. The stromal cells were incubated for 2 days in the presence or absence of the indicated concentrations of PT-100 and cultured supernatants were assayed for IL-6 or DPPIV-like activity as described in Materials and Methods.

[4] = tested on: DPPIV-like activity of FAP-α+ CD26− primary human stromal cells; assay: DPPIV-like activity assay on FAP-α+ CD26− primary human stromal cells; type: cell-based; settings: human stromal cells lacking CD26 but expressing FAP-α, 2 days incubation
Description: DPPIV-like activity assay. Following the removal of supernatant from the stromal cultures, the adherent cells were washed with D-PBS and assayed for DPPIV-like activity. The fluorogenic substrate Ala-Pro-AFC was diluted in DPPIV buffer (50 mM Hepes, 140 mM NaCl) from the original stock of 10 mM (stored at −20° C. as a solution in dimethyl-formamide) to 1 mM, directly before the assay. 30 μl of the 1 mM stock was added per ml of buffer and the stromal cells were incubated for 10 minutes with 1 ml per well of the diluted substrate. The reaction was stopped by removing the substrate solution from each well and measured in the fluorescence spectrophotometer or stored −20° C. Activity was measured using an excitation wavelength of 400 nm and emission wavelength of 505 nm.
as §3
Establishment of human stromal feeder layer. 2 to 4×10^7 human bone marrow mononuclear cells were seeded into a T75 flask (Corning) containing 20 mls of LTC medium and incubated. at 37° C. in 100% humidified 5% CO2 in air. After 1 week half the medium was exchanged for fresh medium and incubated for approximately 1 week when a confluent cell layer formed. […]

WEHI-164 fibrosarcoma = assay: Subcutaneous WEHI-164 fibrosarcoma in mice; type: in vivo, mouse
Description: Thus in the experiment of FIG. 5, the large reductions in tumor volume recorded were in part due to the absence of a palpable tumor in some of the mice:in each of the PT-100 treated groups (10 replicate animals per group). For example, in the mice treated with the 5 μg dose of PT-100 administered b.i.d., 6 of the animals were completely free of a detectable s.c. tumor. PT-100 treatment of the mice in the experimental groups was stopped on day 20, the day when the data of FIG. 5 were recorded.

[5] = administration started on day 2 after implantation

With CC(C)[C@H](N)C(=O)N1CCC[C@H]1B(O)O [PT-100, valine-proline-boronic acid] the “IL-6 levels in culture supernatant” value [1] was “enhanced”, the Tumor growth (B16-F0 tumor; 160 μg administered for two days, day 8 and day 9) was “effective in suppressing tumor growth” and the “Tumor growth compared with saline treated control mice” value (B16-F0 tumor; 10 and 40 μg p.o. b.i.d. from day 8 to 14, tumor volumes days 8, 12, 15) was “markedly inhibited”. The “Growth of B16 melanoma” value (B16-F0 tumor; administered orally, mice) was “significantly inhibits”, the “% Inhibition by 10^−6 M PT-100 of DPPIV-like activity” value ([2]; Fischer D− (CD26 negative) rat BM stromal cells, 2 days culture, 10^−6 M, relative to no treatment control) was 86.4% and 73.8% and 62.1% and the “Inhibition of DPPIV-like activity (in words)” value ([2]; rat bone marrow stromal cells which lack CD26) was “potently inhibited”. For the same compound, the G-CSF release [3] was “potently stimulated”, the “Inhibition of DPPIV-like activity associated with the intact cells” value [4] was “inhibited” and the “Animals completely free of a detectable s.c. tumor” value (WEHI-164 fibrosarcoma; 5 μg b.i.d., started day 2, recorded day 20, 10 animals per group) was 6 animals. For the same compound, the “Growth of WEHI-164 fibrosarcoma” value (WEHI-164 fibrosarcoma; administered orally, mice) was “significantly inhibits”, the Tumor growth (WEHI-164 fibrosarcoma; [5]) was “tumor growth inhibited” and the “Tumor necrosis and regression” value (WEHI-164 fibrosarcoma; [5]) was “a proportion of the tumors also became necrotic and apparently regressed completely”. The “Growth of an established s.c. tumor” value (WEHI-164 fibrosarcoma; established s.c. WEHI-164 tumor) was “could suppress the growth” and the “Tumor recurrence in mice recorded as tumor-free on day 20” value (WEHI-164 fibrosarcoma; treatment stopped on day 20, monitored up to day 30 after implantation) was “none of the mice recorded as tumor-free on day 20 has developed a detectable s.c. tumor”.
